From ChEMBL document CHEMBL1137323, “Discovery of [4-Amino-2-(1-methanesulfonylpiperidin-4-ylamino)pyrimidin-5-yl](2,3-difluoro-6- methoxyphenyl)methanone (R547), a potent and selective cyclin-dependent kinase inhibitor with significant in vivo antitumor activity” (J Med Chem, 2006)

Columns and labels:
[1] = biological target: Cyclin-dependent kinase 4/cyclin D1 (Homo sapiens, UniProt P11802)
Description: Inhibition of CDK4/Cyclin D1

[2] = biological target: Cyclin-dependent kinase 1 (Homo sapiens, UniProt P06493)
Description: Inhibition of CDK1/Cyclin B

[3] = biological target: Cyclin-dependent kinase 2 (Homo sapiens, UniProt P24941)
Description: Inhibition of CDK2/Cyclin E

[4] = in vivo; conditions: nude, mouse, iv, 10 mg/kg
Description: Clearance in nude mouse at 10 mg/kg, iv

[5] = in vivo; conditions: nude, mouse, iv, 10 mg/kg; remark: listed apart in the source
Description: Volume of distribution in nude mouse at 10 mg/kg, iv

Chain of Cyclin-dependent kinase 4/cyclin D1 (P11802 whole entry): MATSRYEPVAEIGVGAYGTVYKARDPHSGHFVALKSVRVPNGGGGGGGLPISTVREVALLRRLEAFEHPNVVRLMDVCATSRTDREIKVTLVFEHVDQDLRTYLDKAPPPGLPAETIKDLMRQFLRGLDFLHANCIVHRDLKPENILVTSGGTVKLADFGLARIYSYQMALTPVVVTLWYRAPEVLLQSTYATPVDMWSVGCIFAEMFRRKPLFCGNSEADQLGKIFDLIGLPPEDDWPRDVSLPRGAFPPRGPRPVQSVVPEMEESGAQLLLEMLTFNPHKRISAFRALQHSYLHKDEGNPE
Chain of Cyclin-dependent kinase 4/cyclin D1 (P24385 whole entry, further chain): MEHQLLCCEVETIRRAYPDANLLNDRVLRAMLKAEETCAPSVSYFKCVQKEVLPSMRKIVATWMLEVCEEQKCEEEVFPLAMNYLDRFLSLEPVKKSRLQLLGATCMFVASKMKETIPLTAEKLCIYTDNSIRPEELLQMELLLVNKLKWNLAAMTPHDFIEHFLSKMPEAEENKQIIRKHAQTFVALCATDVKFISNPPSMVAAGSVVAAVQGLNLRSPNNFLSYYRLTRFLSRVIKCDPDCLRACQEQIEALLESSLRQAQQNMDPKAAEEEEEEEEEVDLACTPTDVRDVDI
Chain of Cyclin-dependent kinase 1 (P06493 whole entry): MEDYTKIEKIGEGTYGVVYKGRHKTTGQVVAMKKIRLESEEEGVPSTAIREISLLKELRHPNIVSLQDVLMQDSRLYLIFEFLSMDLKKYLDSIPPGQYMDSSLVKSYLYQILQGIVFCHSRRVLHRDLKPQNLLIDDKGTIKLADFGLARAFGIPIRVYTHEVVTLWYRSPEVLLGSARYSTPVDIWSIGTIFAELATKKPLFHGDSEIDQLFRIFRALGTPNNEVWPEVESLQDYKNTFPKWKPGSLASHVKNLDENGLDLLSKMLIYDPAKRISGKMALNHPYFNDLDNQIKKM

Ki [1] | Ki [2] | Ki [3] | clearance [4] | Vd [5] | Compound
0.409 µM | 1.53 µM | 1.76 µM |  |  | CCNC(=O)N1CCC(Nc2ncc(C(=O)c3ccccc3OC)c(N)n2)CC1
0.665 µM | 1.11 µM | 2.17 µM |  |  | CCOC(=O)N1CCC(Nc2ncc(C(=O)c3ccccc3C)c(N)n2)CC1
0.986 µM | 2.5 µM | 2.03 µM |  |  | CCOc1ccccc1C(=O)c1cnc(NC2CCN(C(C)=O)CC2)nc1N
0.066 µM | 0.181 µM | 0.327 µM |  |  | COc1ccccc1C(=O)c1cnc(NC2CCN(C(C)=O)CC2)nc1N
0.006 µM | 0.014 µM | 0.006 µM |  |  | COc1cc(F)c(F)cc1C(=O)c1cnc(NC2CCN(S(C)(=O)=O)CC2)nc1N
0.584 µM | > 10 µM | > 10 µM |  |  | Cc1ccccc1C(=O)c1cnc(Nc2ccc(N3CCN(C)CC3)cc2)nc1N
0.267 µM | 1.67 µM | 0.495 µM |  |  | COc1c(C(=O)c2cnc(NC3CCN(S(C)(=O)=O)CC3)nc2N)cc(F)c(F)c1F
0.11 µM | 0.246 µM | 0.597 µM |  |  | CCOC(=O)N1CCC(Nc2ncc(C(=O)c3ccccc3OC)c(N)n2)CC1
0.003 µM | 0.017 µM | 0.013 µM |  |  | COc1cccc(F)c1C(=O)c1cnc(NC2CCN(S(C)(=O)=O)CC2)nc1N
0.159 µM | 1.26 µM | 5.14 µM |  |  | COc1ccccc1C(=O)c1cnc(Nc2ccc(N3CCN(C)CC3)cc2)nc1N
0.016 µM | 0.043 µM | 0.051 µM |  |  | CCS(=O)(=O)N1CCC(Nc2ncc(C(=O)c3ccccc3OC)c(N)n2)CC1
0.45 µM | > 10 µM | > 10 µM |  |  | CN1CCN(c2ccc(Nc3ncc(C(=O)c4cccc(F)c4)c(N)n3)cc2)CC1
0.036 µM | 0.133 µM | 0.451 µM |  |  | COc1ccc(Cl)cc1C(=O)c1cnc(NC2CCN(S(C)(=O)=O)CC2)nc1N
0.734 µM | 1.64 µM | 3.14 µM |  |  | CCOC(=O)N1CCC(Nc2ncc(C(=O)c3ccccc3F)c(N)n2)CC1
0.021 µM | 0.193 µM | 0.084 µM |  |  | COc1cc(F)ccc1C(=O)c1cnc(NC2CCN(S(C)(=O)=O)CC2)nc1N
> 1 µM | > 10 µM | > 10 µM |  |  | CN1CCN(c2ccc(Nc3ncc(C(=O)c4cccc(C(F)(F)F)c4)c(N)n3)cc2)CC1
0.017 µM | 0.038 µM | 0.015 µM |  |  | CS(=O)(=O)N1CCC(Nc2ncc(C(=O)c3c(F)cccc3F)c(N)n2)CC1
0.098 µM | 0.278 µM | 0.886 µM |  |  | CCCC(=O)N1CCC(Nc2ncc(C(=O)c3ccccc3OC)c(N)n2)CC1
> 1 µM | 6.62 µM | > 10 µM |  |  | COc1ccccc1C(=O)c1cnc(NC2CCN(C)CC2)nc1N
0.001 µM | 0.005 µM | 0.002 µM |  |  | COc1cc(F)c(F)c(F)c1C(=O)c1cnc(NC2CCN(S(C)(=O)=O)CC2)nc1N
> 1 µM | > 10 µM | > 10 µM |  |  | COc1cccc(C(=O)c2cnc(Nc3ccc(N4CCN(C)CC4)cc3)nc2N)c1
0.481 µM | 5.84 µM | 6.27 µM |  |  | COc1ccccc1C(=O)c1cnc(NC2CCNCC2)nc1N
0.007 µM | 0.014 µM | 0.007 µM | 48.3 mL/min/kg | 0.885 L/kg | COc1ccc(F)cc1C(=O)c1cnc(NC2CCN(S(C)(=O)=O)CC2)nc1N
0.821 µM | > 10 µM | > 10 µM |  |  | CN1CCN(c2ccc(Nc3ncc(C(=O)c4ccccc4C(F)(F)F)c(N)n3)cc2)CC1
